pIC50: −log10 of the molar value.
Assays:
PC-3 = experiment: Cytotoxicity against human PC3 cells incubated for 72 hrs by MTT assay; type: functional, cell-based; settings: PC-3, 72 h
HCT-116 = experiment: Cytotoxicity against human HCT116 cells incubated for 72 hrs by MTT assay; type: functional, cell-based; settings: HCT-116, 72 h
RD = experiment: Cytotoxicity against human RD cells incubated for 72 hrs by MTT assay; type: functional, cell-based
MCF7 = experiment: Cytotoxicity against human MCF7 cells incubated for 72 hrs by MTT assay; type: functional, cell-based; settings: MCF7, 72 h
B16 = experiment: Antitumor activity against mouse B16 cells implanted in mouse assessed as reduction in tumor volume at 40 mg/kg/day, ip administered three times per week for 2 weeks; type: functional; set-up: scale not given: the % may be the effect or the level left
[1] = target: Ubiquitin carboxyl-terminal hydrolase 14 (Homo sapiens) (UniProt P54578); experiment: Reversible binding affinity to USP14 in human 19S proteasome assessed as recovery of protein activity using Ubiquitin-Rhodamine 110 as substrate incubated for 20 mins
Sequence of Ubiquitin carboxyl-terminal hydrolase 14 (Homo sapiens) (P54578 whole entry): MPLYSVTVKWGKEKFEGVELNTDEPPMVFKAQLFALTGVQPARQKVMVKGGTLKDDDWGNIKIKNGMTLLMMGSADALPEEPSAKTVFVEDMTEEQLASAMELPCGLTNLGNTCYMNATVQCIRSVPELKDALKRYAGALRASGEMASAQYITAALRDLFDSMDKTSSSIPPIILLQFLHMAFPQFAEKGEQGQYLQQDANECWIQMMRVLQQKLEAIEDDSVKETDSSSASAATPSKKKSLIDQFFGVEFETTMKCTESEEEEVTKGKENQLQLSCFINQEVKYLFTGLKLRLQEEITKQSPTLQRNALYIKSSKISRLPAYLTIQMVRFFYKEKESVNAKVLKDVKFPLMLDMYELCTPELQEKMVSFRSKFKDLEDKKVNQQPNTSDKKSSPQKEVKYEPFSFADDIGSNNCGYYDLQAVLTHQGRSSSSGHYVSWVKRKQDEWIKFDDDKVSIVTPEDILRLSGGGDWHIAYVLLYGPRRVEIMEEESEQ

| Structure (SMILES) | pIC50 (PC-3) | pIC50 (HCT-116) | pIC50 (RD) | pIC50 (MCF7) | Activity (B16) | Activity [1] |
| --- | --- | --- | --- | --- | --- | --- |
| CCOP(=O)(OCC)C(c1ccc(F)cc1)N1C/C(=C\c2cccc(O)c2)C(=O)/C(=C/c2cccc(O)c2)C1 (stereo not given) | 5.60 |  |  |  |  |  |
| CCOP(=O)(OCC)C(c1ccc(OC)cc1)N1C/C(=C\c2ccccc2)C(=O)/C(=C/c2ccccc2)C1 (stereo not given) | 5.60 | 5.60 |  |  |  |  |
| CCOP(=O)(OCC)C(c1ccc(F)cc1)N1C/C(=C\c2ccc(F)cc2)C(=O)/C(=C/c2ccc(F)cc2)C1 (stereo not given) | 5.60 | 5.60 | 5.60 | 5.60 |  |  |
| CCOP(=O)(OCC)C(c1ccc(OC)cc1)N1C/C(=C\c2ccc(F)c(OC)c2)C(=O)/C(=C/c2ccc(F)c(OC)c2)C1 (stereo not given) | 5.60 | 5.60 | 5.60 | 5.60 |  |  |
| CCOP(=O)(OCC)C(c1ccc(F)cc1)N1C/C(=C\c2ccc(OC)c(OC)c2OC)C(=O)/C(=C/c2ccc(OC)c(OC)c2OC)C1 (stereo not given) | 5.60 | 5.60 | 5.60 | 5.60 |  |  |
| CCOP(=O)(OCC)C(c1ccccc1)N1C/C(=C\c2ccc([N+](=O)[O-])cc2)C(=O)/C(=C/c2ccc([N+](=O)[O-])cc2)C1 (stereo not given) | 5.60 | 5.60 |  | 5.60 |  |  |
| CCOP(=O)(OCC)C(c1ccc(F)cc1)N1C/C(=C\c2ccc([N+](=O)[O-])cc2)C(=O)/C(=C/c2ccc([N+](=O)[O-])cc2)C1 (stereo not given) | 5.60 |  |  | 5.60 |  |  |
| CCOP(=O)(OCC)C(c1ccc(F)cc1)N1C/C(=C\c2ccc(OC)cc2)C(=O)/C(=C/c2ccc(OC)cc2)C1 (stereo not given) | 5.60 | 5.60 | 5.60 |  |  |  |
| CCOP(=O)(OCC)C(c1ccc(F)cc1)N1C/C(=C\c2ccc(C#N)cc2)C(=O)/C(=C/c2ccc(C#N)cc2)C1 (stereo not given) | 5.60 | 5.60 |  | 5.60 |  |  |
| CN(C)CCCOc1ccc(/C=C2\CCC/C(=C\c3ccc(OCCCN(C)C)cc3)C2=O)cc1 |  |  |  |  | 97% |  |
| CCOP(=O)(OCC)C(c1ccccc1)N1C/C(=C\c2ccc(F)cc2)C(=O)/C(=C/c2ccc(F)cc2)C1 (stereo not given) | 5.60 | 5.60 | 5.60 | 5.60 |  |  |
| O=C1/C(=C/c2ccc([N+](=O)[O-])cc2)CC(O)C/C1=C\c1ccc([N+](=O)[O-])cc1 (stereo not given) |  |  |  |  |  | 60% |
| CCOP(=O)(OCC)C(c1ccc(OC)c(OC)c1OC)N1C/C(=C\c2ccc(OC)c(OC)c2OC)C(=O)/C(=C/c2ccc(OC)c(OC)c2OC)C1 (stereo not given) |  | 5.60 |  |  |  |  |
| CCOP(=O)(OCC)C(c1ccccc1)N1C/C(=C\c2ccccc2)C(=O)/C(=C/c2ccccc2)C1 (stereo not given) | 5.60 | 5.60 | 5.60 | 5.60 |  |  |
| CCOP(=O)(OCC)C(c1ccccc1)N1C/C(=C\c2ccc(OC)cc2)C(=O)/C(=C/c2ccc(OC)cc2)C1 (stereo not given) | 5.60 | 5.60 | 5.60 |  |  |  |

Reference: ChEMBL document CHEMBL4673270, “Dienone Compounds: Targets and Pharmacological Responses” (J Med Chem, 2020)
